The source of these data is patent publication US9193954B2, “Methods and compositions for mesenchymal stem cell proliferation” (priority 2011, dated 2015).

For one data set, the system named is hMSCs. Nature of the data set: LIVE/DEAD confocal imaging of two-dimensional BIO-treated hMSC cultures. It counts as cell-based, human. Conditions: no detectable dead cells. As to the method:
FIG. 4 Schematic representation of 41 day hMSC monolayer culture after 24 hr exposure to BIO-containing media (A). Cells were trypsinized and manually counted on days 0, 1, 3, 6, 19, 27, 34, 37, and 41 and shown to undergo a dose-dependent, BIO-mediated increase in proliferation (B).
hMSC cell layer thickness was measured using the z-directional controls of a FV1000 Olympus Laser Scanning Confocal Microscope. On days 1, 14, and 40 cells, seeded on optically clear glass bottom 24-well culture plates (MatTek, Ashland, Mass.) were stained using a fluorescent LIVE/DEAD Viability/Cytotoxicity kit (Invitrogen). The focal plane of the microscope was adjusted to the cell-plate interface and set to zero. Using the z-directional controls the focal plane was raised until the live fluorescently stained cells were no longer visible at which point the cell layer thickness was recorded.

The subject of data set [1] is stem markers Sox2 and Nanog. Nature of the data set: RT-PCR of stem markers Sox2 and Nanog at end of 33 day culture, normalized to GAPDH (Example 1). Conditions: end of 33 day time course. It counts as cell-based, human. As to the method:
FIG. 2 RNA was harvested from BIO treated hMSCs at day […] and analyzed for expression of stem markers Sox2 and Nanog. Expression was normalized to housekeeping gene GAPDH. Error bars shown are standard error (n=3).
At the end of the 33 day experimental time course RNA was isolated (Omega E.N.Z.A total RNA kit) from the hMSC specimens (n=3) and reverse transcription (Bio-Rad iSCRIPT cDNA synthesis kit) was performed to yield cDNA. Forward and reverse primers (Table 1.) for the stem markers Sox2 and Nanog as well as the housekeeping gene, GAPDH (Glyceraldehyde 3-phosphate dehydrogenase) were then used to quantify gene expression. Expressions of genes of interest (Sox2 and Nanog) were normalized to control (GAPDH). We observed a dose dependent increase in both Sox2 and Nanog gene expression. Sox2 expression increased ˜30% and ˜50% with 2 μM and 5 μM BIO treatment, while Nanog expression increased >100% with 5 μM BIO treatment (FIG. 2).

Take `O=C1Nc2cc(Br)ccc2/C1=C1/Nc2ccccc2/C1=N\O` [BIO, 6-bromoindirubin-3′-oxime]: in the data set with hMSCs, the “live cells (LIVE/DEAD imaging)” value was approximately 100%. Further, the Sox2 expression increase in data set [1] (2 μM BIO) is given as approximately 30%; in data set [1] (5 μM BIO), approximately 50%. Moreover, the Nanog expression increase in data set [1] (5 μM BIO) is more than 100%.
